Assay results taken from PubChem BioAssay (NCI).
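1) Cells in 96-well plates. 2) Compound, 48 h, 5 concentrations. 3) Linear interpolation between surrounding doses. 4) Unreached endpoint = highest concentration. TGI denotes the concentration required for complete inhibition of growth.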

Assays:
Experiment in all cases: NCI-60 cell line screen, 48 h
[1] = system: OVCAR-5 ovarian
[2] = system: SK-MEL-5 melanoma
[3] = system: OVCAR-3 ovarian
[4] = system: BT-549 breast
[5] = system: HT29 colon
[6] = system: SK-MEL-2 melanoma
[7] = system: M14 melanoma
[8] = system: PC-3 prostate
[9] = system: SN12C renal
[10] = system: MOLT-4 leukemia
[11] = system: HS 578T breast
[12] = system: HL-60(TB) leukemia
[13] = system: COLO 205 colon
[14] = system: SNB-19 CNS
[15] = system: CAKI-1 renal
[16] = system: SK-OV-3 ovarian
[17] = system: MDA-N
[18] = system: ACHN renal
[19] = system: HCT-15 colon
[20] = system: HOP-92 NSCLC
[21] = system: OVCAR-4 ovarian
[22] = system: DU-145 prostate
[23] = system: TK-10 renal
[24] = system: CCRF-CEM leukemia
[25] = system: SK-MEL-28 melanoma
[26] = system: A549 NSCLC
[27] = system: MDA-MB-231 breast
[28] = system: SNB-75 CNS
[29] = system: RXF 393 renal
[30] = system: NCI-H522 lung
[31] = system: IGROV1 ovarian
[32] = system: UACC-62 melanoma
[33] = system: SF-295 CNS
[34] = system: T-47D breast
[35] = system: 786-0 renal
[36] = system: K-562 leukemia
[37] = system: EKVX NSCLC
[38] = system: SW-620 colon
[39] = system: HCT-116 colon
[40] = system: A498 renal
[41] = system: HCC-2998 colon
[42] = system: NCI-H226 lung
[43] = system: MALME-3M melanoma
[44] = system: UACC-257 melanoma
[45] = system: LOX IMVI melanoma
[46] = system: NCI/ADR-RES ovarian
[47] = system: U251 CNS
[48] = system: NCI-H23 lung
[49] = system: HOP-62 NSCLC
[50] = system: OVCAR-8 ovarian
[51] = system: KM12 colon
[52] = system: SF-268 CNS
[53] = system: MCF7 breast
[54] = system: SF-539 CNS
[55] = system: MDA-MB-435
[56] = system: NCI-H460 lung
[57] = system: UO-31 renal

`COC(=O)c1ccccc1C1CN=NC12Cc1c(C)ccc(C)c1C2=O` (configuration not stated) was tested, and the TGI [1] was greater than 100 µM, the TGI [2] was greater than 100 µM and the TGI [3] was greater than 100 µM. It also gave a TGI [4] greater than 100 µM, a TGI [5] greater than 100 µM and a TGI [6] greater than 100 µM. For the same compound, the TGI [7] was greater than 100 µM, the TGI [8] was greater than 100 µM and the TGI [9] was greater than 100 µM. The TGI [10] was greater than 100 µM, the TGI [11] was greater than 100 µM and the TGI [12] was greater than 100 µM. For the same compound, the TGI [13] was greater than 100 µM, the TGI [14] was greater than 100 µM and the TGI [15] was greater than 100 µM. For the same compound, the TGI [16] was greater than 100 µM, the TGI [17] was greater than 100 µM and the TGI [18] was greater than 100 µM. For the same compound, the TGI [19] was greater than 100 µM, the TGI [20] was greater than 100 µM and the TGI [21] was greater than 100 µM. For the same compound, the TGI [22] was greater than 100 µM, the TGI [23] was greater than 100 µM and the TGI [24] was greater than 100 µM. It also gave a TGI [25] greater than 100 µM, a TGI [26] greater than 100 µM and a TGI [27] greater than 100 µM. The TGI [28] was greater than 100 µM, the TGI [29] was greater than 100 µM and the TGI [30] was greater than 100 µM. For the same compound, the TGI [31] was greater than 100 µM, the TGI [32] was greater than 100 µM and the TGI [33] was greater than 100 µM. For the same compound, the TGI [34] was greater than 100 µM, the TGI [35] was greater than 100 µM and the TGI [36] was greater than 100 µM. For the same compound, the TGI [37] was greater than 100 µM, the TGI [38] was greater than 100 µM and the TGI [39] was greater than 100 µM. It also gave a TGI [40] greater than 100 µM, a TGI [41] greater than 100 µM and a TGI [42] greater than 100 µM. It also gave a TGI [43] greater than 100 µM, a TGI [44] greater than 100 µM and a TGI [45] greater than 100 µM. The TGI [46] was greater than 100 µM, the TGI [47] was greater than 100 µM and the TGI [48] was greater than 100 µM. It also gave a TGI [49] greater than 100 µM, a TGI [50] greater than 100 µM and a TGI [51] greater than 100 µM. The TGI [52] was greater than 100 µM, the TGI [53] was greater than 100 µM and the TGI [54] was greater than 100 µM. The TGI [55] was greater than 100 µM, the TGI [56] was greater than 100 µM and the TGI [57] was greater than 100 µM.
With `CC(=O)C(C(C)=O)[C@H]1OC(C)(C)O[C@H]1[C@H]1COC(C)(C)O1` the TGI [1] was greater than 100 µM, the TGI [2] was greater than 100 µM and the TGI [3] was greater than 100 µM. It also gave a TGI [4] of 90.5 µM, a TGI [5] greater than 100 µM and a TGI [6] of 58.8 µM. For the same compound, the TGI [7] was greater than 100 µM, the TGI [8] was 68.9 µM and the TGI [9] was greater than 100 µM. The TGI [10] was greater than 100 µM, the TGI [11] was greater than 100 µM and the TGI [13] was 32.5 µM. The TGI [14] was greater than 100 µM, the TGI [15] was greater than 100 µM and the TGI [16] was greater than 100 µM. For the same compound, the TGI [17] was greater than 100 µM, the TGI [18] was greater than 100 µM and the TGI [19] was greater than 100 µM. It also gave a TGI [20] greater than 100 µM, a TGI [21] greater than 100 µM and a TGI [22] greater than 100 µM. It also gave a TGI [23] greater than 100 µM, a TGI [24] greater than 100 µM and a TGI [25] greater than 100 µM. The TGI [26] was greater than 100 µM, the TGI [27] was 89 µM and the TGI [28] was greater than 100 µM. It also gave a TGI [29] greater than 100 µM, a TGI [30] of 93.3 µM and a TGI [31] greater than 100 µM. For the same compound, the TGI [32] was greater than 100 µM, the TGI [33] was greater than 100 µM and the TGI [34] was greater than 100 µM. It also gave a TGI [35] greater than 100 µM, a TGI [36] greater than 100 µM and a TGI [37] greater than 100 µM. The TGI [38] was greater than 100 µM, the TGI [39] was greater than 100 µM and the TGI [40] was greater than 100 µM. For the same compound, the TGI [41] was 86 µM, the TGI [43] was greater than 100 µM and the TGI [44] was greater than 100 µM. For the same compound, the TGI [45] was greater than 100 µM, the TGI [46] was greater than 100 µM and the TGI [47] was 79.9 µM. For the same compound, the TGI [48] was greater than 100 µM, the TGI [49] was greater than 100 µM and the TGI [50] was greater than 100 µM. For the same compound, the TGI [51] was greater than 100 µM, the TGI [52] was greater than 100 µM and the TGI [53] was greater than 100 µM. The TGI [54] was 41.5 µM, the TGI [55] was greater than 100 µM and the TGI [56] was greater than 100 µM. The TGI [57] was greater than 100 µM.
